Source: paper PMC5358776, “Insight into the mechanism of action of temporin-SHa, a new broad-spectrum antiparasitic and antibacterial agent” (PLoS ONE, 2017)
Values after ≈ are worked out from the molar mass of the structure shown. Where two headings read alike, the source gives them in different places. Where no end group is shown, it is not given here.

Legend:
[1] = test system: L. infantum promastigotes; assay: DNA fragmentation, TUNEL assay; format: cell-based, Leishmania infantum; details: 50 μM, 48 h
Description: (§1) Mid-log phase L. infantum promastigotes were synchronized at the G1/S border by treating with 10 mM hydroxyurea for 24 h at 26°C [81]. […] Then 400 μl of different concentrations of peptide (12.5, 25 and 50 μM, final concentrations) were added to 1.6 ml of the cell suspension. After 48 h incubation, samples were split into two volumes (2 x 1 ml) to analyze the cell cycle and DNA fragmentation. For cell cycle analysis, the first sample (1 ml) was centrifuged (1,000 x g, 10 min) and 100 μl of HBSS was added to the pellet. Then, 900 μl of cold 70% ethanol was gently added drop-wise for cell fixation. After an overnight incubation at -20°C, cells were washed (16,000 x g, 10 min, 4°C) with HBSS and resuspended in 1 ml of HBSS containing 100 μg of RNase A (Sigma-Aldrich) and 5 μg of propidium iodide. After 30 min of incubation at 37°C, samples were passed 5 times through a sterile plastic syringe fitted with a 27 gauge needle and analyzed by flow cytometry (FACSCalibur). For DNA fragmentation analysis, a TUNEL assay was performed on the second 1 ml sample. […] DNA strand breaks were detected by the addition of biotinylated nucleotides to the free 3′-hydroxyl ends of the DNA fragments using TdT (terminal deoxynucleotidyl transferase) and tagged with a streptavidin-FITC conjugate for subsequent detection by flow cytometry. […]

[2] = test system: L. infantum promastigotes; assay: Cell cycle analysis, sub-G1 phase; format: cell-based, Leishmania infantum; details: 50 μM, 48 h
Description: as §1

E. coli ATCC 25922 [3] = assay: Multipassage resistance selection; format: cell-based, Escherichia coli; details: for fold increase in the MIC against control bacteria at the end of the selection: lineages grown without antimicrobial agent, passage 55
K. pneumoniae ATCC 13883 = details: ATCC 13883
Description: (§2) Activity against bacteria and yeasts was assessed with a liquid growth inhibition assay performed in 96-well microtitration plates, according to a previously described protocol [14], using mid-logarithmic phase cultures diluted in Mueller-Hinton (MH, Dominique Dutscher) broth (LB broth for E. faecalis strain and YPD medium for yeasts/fungi) to an A630 value of 0.01 (10^6 cfu/ml) and 2-fold serial dilutions of synthetic temporin (200–1 μM, final concentrations). The minimal inhibitory concentration (MIC) was determined as the mean value of three independent experiments, each performed in triplicate with negative (H2O) and positive (0.7% formaldehyde) controls.

S. aureus ATCC 25923 = details: ATCC 25923
Description: as §2

[4] = test system: Gram-negative and Gram-positive bacteria and yeasts/fungi; assay: MIC, whole panel of strains; format: cell-based; details: for MIC: against all strains
A. baumannii ATCC 19606 = details: ATCC 19606
Description: as §2

Rat erythrocytes = details: 1 h
Description: (§3) Hemolytic assays were also performed using erythrocytes obtained from fresh blood samples of Wistar male rats (Charles River Laboratories, France). The hemolytic activity was measured by incubating the peptide (1–200 μM, final concentrations) with erythrocytes (2 x 10^7 cells) in PBS (100 μl) for 1 h at 37°C, as previously described [23]. A parallel incubation in the presence of 0.1% (v/v) Triton-X100 was carried out to determine the absorbance associated with 100% hemolysis. […] For THP-1-derived macrophages, viability was determined by Trypan blue staining after incubation with peptide (1–100 μM, final concentrations). LC50 (average concentration of the peptide producing 50% cell lysis) and IC50 values were determined with GraphPad Prism 6.0 software and correspond to the mean obtained from three independent experiments carried out with three (erythrocytes, THP-1 monocytes, HepG2 and HFF cells) or six replicates (THP-1-derived macrophages).
(§4) IC50 or LC50 values were determined for the different human cells mentioned above in the cytotoxicity assays.

E. faecalis ATCC 29212 = details: ATCC 29212
Description: (§5) Listeria ivanovii Li4pVS2 (kindly provided by Jean-Marc Berjeaud, Université de Poitiers, France), and Streptococcus pyogenes ATCC 19615 (ATCC) were cultured in brain heart infusion (BHI, Sigma-Aldrich) medium under the same conditions.
as §2

S. aureus ST1065 = details: ST1065
Description: as §2

[5] = test system: C. parapsilosis ATCC 22019; details: ATCC 22019, 96 h
Description: (§6) Candida albicans ATCC 90028, Candida parapsilosis ATCC 22019 (ATCC), and Saccharomyces cerevisiae (laboratory collection) were cultured in yeast peptone dextrose (YPD, Sigma-Aldrich) medium at 30°C.
(§7) The minimal inhibitory concentration (MIC) was determined as the mean value of three independent experiments, each performed in triplicate with negative (H2O) and positive (0.7% formaldehyde) controls.

S. cerevisiae = details: 96 h
Description: as §6, §7

E. coli ATCC 25922 [6] = details: ATCC 25922
Description: as §5, §2

P. aeruginosa ATCC 27853 = details: ATCC 27853
Description: as §5, §2

[7] = test system: S. enterica (serotype Enteritidis); details: serotype Enteritidis
Description: as §2

E. coli ML-35p = details: MH broth, 10^6 cfu/ml; mean of 3 independent experiments in triplicate
Description: as §5, §2

C. albicans ATCC 90028 = details: ATCC 90028, 96 h
Description: as §6, §7

Human THP-1 monocytes = details: 72 h
Human HepG2 = details: MTT, 72 h, 37°C, 50–600 μM; mean of 3 independent experiments in triplicate
Human erythrocytes = details: 1 h
Description: as §3, §4

S. pyogenes ATCC 19615 = details: ATCC 19615
Description: as §5, §2

[8] = test system: L. infantum (intramacrophagic) amastigotes in THP-1-derived macrophages; details: intramacrophagic) amastigotes in THP-1-derived macrophages, 24 h
Description: Leishmania infantum (strain MHOM/MA/67/ITMAP-263), Leishmania major (strain MHOM/SU/73/5-ASKH), Leishmania tropica (strain MHOM/SU/74/SAFK27), Leishmania amazonensis (strain MHOM/BR/73/M2269), and Leishmania braziliensis (strain MHOM/BR/75/M2904) promastigotes (kindly provided by Francine Pratlong, Centre National de Référence des Leishmania, Montpellier, France) were cultured at 26°C in SDM-79 medium supplemented with 10% fetal calf serum (FCS, Gibco) [23]. […] L. infantum-infected human macrophages were obtained from human THP-1 monocytes, as previously described [23, 78].
Intramacrophagic leishmanicidal activity of the peptides was assessed by incubating L. infantum-infected human macrophages with 2-fold serial dilutions of peptide (50–2.5 μM, final concentrations) for 4 days, as previously described [23]. THP-1-derived macrophages were infected with promastigotes from late log phase at a density of 5 x 10^5 cells/well (ratio 10:1) in RPMI medium for 24 h at 37°C with 5% CO2. […] The results are expressed as the means of two experiments performed with six replicates.

Gram-positive bacteria = details: 7 Gram-positive strains of Table 3
[9] = test system: L. amazonensis promastigotes; details: promastigotes, 96 h
Description: (§8) L. infantum axenic amastigotes were differentiated from promastigotes in MAA medium (supplemented with 20% FCS) and were grown at 37°C in 5% CO2 [23].
(§9) Antiparasitic activity was evaluated against trypanosomatids, such as Leishmania and Trypanosoma. Antileishmanial activity was determined either by a luminescence-based assay (L. infantum, L. major and L. braziliensis) or by cell counting (FACSCalibur flow cytometer, Becton-Dickinson Biosciences, Woburn, MA, USA) after staining with propidium iodide (L. tropica and L. amazonensis), as previously described [23], using promastigotes or axenic amastigotes (1.25 x 10^6 parasites/ml) in mid-log phase and 5-fold serial dilutions of synthetic temporin (50–3.1 μM, final concentrations). […] The half maximal inhibitory concentration (IC50) value was determined with GraphPad Prism 6.0 software (GraphPad Software, La Jolla, CA, USA) using a sigmoidal dose response (variable slope) curve fitting equation. The results are expressed as the means of three independent experiments performed in triplicate (luminescence-based assays) or in duplicate (cell counting-based assays).

[10] = test system: Human THP-1-derived macrophages; assay: Cytotoxicity, Trypan blue staining; details: 1–100 μM, mean of 3 independent experiments, six replicates
Description: as §3, §4

[11] = test system: promastigotes of several species of Leishmania; details: 96 h
Description: (§10) Antiparasitic activity was evaluated against trypanosomatids, such as Leishmania and Trypanosoma. Antileishmanial activity was determined either by a luminescence-based assay (L. infantum, L. major and L. braziliensis) or by cell counting (FACSCalibur flow cytometer, Becton-Dickinson Biosciences, Woburn, MA, USA) after staining with propidium iodide (L. tropica and L. amazonensis), as previously described [23], using promastigotes or axenic amastigotes (1.25 x 10^6 parasites/ml) in mid-log phase and 5-fold serial dilutions of synthetic temporin (50–3.1 μM, final concentrations). Antitrypanosomal activity against T. brucei gambiense and T. cruzi was assessed by cell counting, similar to the L. tropica and L. amazonensis analysis, after incubation of the parasites (96 h for T. brucei gambiense and 120 h for T. cruzi) with the synthetic temporin, as previously described [23]. The half maximal inhibitory concentration (IC50) value was determined with GraphPad Prism 6.0 software (GraphPad Software, La Jolla, CA, USA) using a sigmoidal dose response (variable slope) curve fitting equation. The results are expressed as the means of three independent experiments performed in triplicate (luminescence-based assays) or in duplicate (cell counting-based assays).

T. brucei gambiense = details: gambiense, 96 h
Description: as §10

[12] = test system: L. braziliensis promastigotes; details: 96 h
Description: as §8, §9

S. aureus ATCC 43300 = details: strain resistant to methicillin and oxacillin; MH broth, 10^6 cfu/ml; mean of 3 independent experiments in triplicate
Description: as §5, §2

[13] = test system: L. infantum (axenic) amastigotes; details: axenic) amastigotes, 96 h
Description: as §8, §9

Human fibroblasts (HFF) = details: 72 h
S. aureus ATCC BAA-44 = details: ATCC BAA-44
L. major promastigotes = details: promastigotes, 96 h
Description: as §8, §9

[14] = test system: L. infantum (antimony resistant) promastigotes; details: antimony-resistant parasites
Description: as §10

Gram-negative bacteria = details: 6 Gram-negative strains of Table 3
T. cruzi epimastigotes = details: epimastigotes, 120 h
Description: as §10

[15] = test system: L. infantum promastigotes; details: promastigotes, 96 h
Description: as §8, §9

Description for L. ivanovii: as §5, §2

Molecule: CCCCCCCCCCCCCCCCOP(=O)([O-])OCC[N+](C)(C)C [Miltefosine, hexadecylphosphocholine]
- DNA fragmentation (FITC-positive cells) [1]: approximately 65%
- Sub-G1 phase (% of cells) [2]: 29.1 % of cells
- Sub-G1 phase (% of cells) ([2]; listed as miltefosine): 29 % of cells

Molecule: CC1(C)S[C@@H]2[C@H](NC(=O)[C@H](N)c3ccccc3)C(=O)N2[C@H]1C(=O)O [ampicillin]
- MIC (E. coli ATCC 25922 [3]; Escherichia coli, ATCC25922, read-out: MIC (initial, before selection)): 12.5 µM (≈ 4.37 µg/mL)
- fold increase in the MIC against adapted E. coli lineages (E. coli ATCC 25922 [3]; lineages adapted from MIC/16 to MIC, 55 passages): 6 fold
- fold increase in the MIC against control bacteria at the end of the selection (E. coli ATCC 25922 [3]): 4 fold

Molecule: D-temporin-SHa [D-SHa]
- fold increase in the MIC against control bacteria at the end of the selection (E. coli ATCC 25922 [3]): ~2 fold

Molecule: FAKGIAGMAGKLF-NH2 [[A^2,6,9, K^3]SHa, [A^2,6,9, K^3]temporin-SHa]
- MIC (K. pneumoniae ATCC 13883): > 200 µM
- MIC (S. aureus ATCC 25923): > 200 µM
- MIC [4]: > 200 µM
- MIC (A. baumannii ATCC 19606): > 200 µM
- LC50 (Rat erythrocytes): > 200 µM
- MIC (E. faecalis ATCC 29212): > 200 µM
- MIC (S. aureus ST1065): > 200 µM
- MIC (L. ivanovii): > 200 µM
- MIC [5]: > 200 µM
- MIC (S. cerevisiae): > 200 µM
- MIC (E. coli ATCC 25922 [6]): > 200 µM
- MIC (P. aeruginosa ATCC 27853): > 200 µM
- MIC [7]: > 200 µM
- MIC (E. coli ML-35p): > 200 µM
- MIC (C. albicans ATCC 90028): > 200 µM

Molecule: FASGIAGMAGKLF-NH2 [[A^2,6,9]SHa, [A^2,6,9]temporin-SHa]
- MIC (K. pneumoniae ATCC 13883): > 200 µM
- MIC (S. aureus ATCC 25923): > 200 µM
- MIC [4]: > 200 µM
- MIC (A. baumannii ATCC 19606): > 200 µM
- IC50 (Human THP-1 monocytes): > 60 µM
- LC50 (Rat erythrocytes): > 200 µM
- MIC (E. faecalis ATCC 29212): > 200 µM
- IC50 (Human HepG2): > 600 µM
- MIC (S. aureus ST1065): > 200 µM
- LC50 (Human erythrocytes): > 100 µM
- MIC (S. pyogenes ATCC 19615): > 200 µM
- MIC (L. ivanovii): > 200 µM
- MIC [5]: > 200 µM
- MIC (S. cerevisiae): > 200 µM
- MIC (E. coli ATCC 25922 [6]): > 200 µM
- MIC (P. aeruginosa ATCC 27853): > 200 µM
- MIC [7]: > 200 µM
- MIC (E. coli ML-35p): > 200 µM
- MIC (C. albicans ATCC 90028): > 200 µM

Molecule: FLKGIVGMLGKLF-NH2 [[K^3]SHa, [K^3]temporin-SHa]
- MIC (K. pneumoniae ATCC 13883): 3 µM
- MIC (S. aureus ATCC 25923): 3 µM
- IC50 [8]: 5 µM
- MICGM (geometric mean of the MIC values) (Gram-positive bacteria): 2.8 µM
- MIC (range over strains) ([4]; all the tested bacteria): 1 to 6 µM
- MIC (A. baumannii ATCC 19606): 3 µM
- IC50 [9]: 8 µM
- LC50 [10]: 55 µM
- IC50 (Human THP-1 monocytes): 48 µM
- LC50 (Rat erythrocytes): 26 µM
- IC50 [11]: 5 to 10 µM
- IC50 (T. brucei gambiense): 16 µM
- MIC (E. faecalis ATCC 29212): 6 µM
- IC50 [12]: 5 µM
- MIC (S. aureus ATCC 43300): 3 µM
- IC50 (Human HepG2): 358 µM
- IC50 [13]: 20 µM
- IC50 (Human fibroblasts (HFF)): > 100 µM
- MIC (S. aureus ATCC BAA-44): 3 µM
- IC50 (L. major promastigotes): 10 µM
- MIC (S. aureus ST1065): 3 µM
- LC50 (Human erythrocytes): 50 µM
- MIC (S. pyogenes ATCC 19615): 1 µM
- MIC (L. ivanovii): 3 µM
- IC50 [14]: 9 µM
- MIC [5]: 25 µM
- MIC (S. cerevisiae): 3 µM
- MIC (E. coli ATCC 25922 [6]): 3 µM
- MICGM (geometric mean of the MIC values) (Gram-negative bacteria): 3.8 µM
- IC50 (T. cruzi epimastigotes): 10 µM
- MIC (P. aeruginosa ATCC 27853): 6 µM
- MIC [7]: 6 µM
- MICGM (geometric mean of the MIC values) (Yeasts/fungi; 3 yeast/fungal strains of Table 3): 7.7 µM
- MIC (range over strains) (Yeasts/fungi; yeasts/fungi): 3 to 25 µM
- MIC (E. coli ML-35p): 3 µM
- MIC (C. albicans ATCC 90028): 6 µM

Molecule: GLWSKIKEVGKEAAKAAAKAAGKAALGAVSEAV-NH2 (C-terminus assumed) [dermaseptin B2, reference compound]
- IC50 (Human THP-1 monocytes): ~7 µM
- IC50 [15]: 2500 nM
